Like-named read-outs stand apart in the source and are kept apart here. Positions of bridges follow the written chain, without caps; N, C: chain ends. Residues, ends and D or L forms follow the SMILES beside them.
Columns and labels:
Experiment in all cases: cell-based
hNav1.3 = hNav1.3 (Homo sapiens, UniProt Q9NY46); settings: IonWorks Quattro, read-out: IWQ Use Nav1.3
hNav1.7 = hNav1.7 (Homo sapiens, UniProt Q15858); format: cell-based; settings: IonWorks Quattro, read-out: IWQ Use Nav1.7
hNav1.5 = hNav1.5 (Homo sapiens, UniProt Q14524)
[1] = IonWorks Quattro, Use, read-out: IWQ Use Nav1.5

Chain of hNav1.3 (Q9NY46 whole entry, looked up): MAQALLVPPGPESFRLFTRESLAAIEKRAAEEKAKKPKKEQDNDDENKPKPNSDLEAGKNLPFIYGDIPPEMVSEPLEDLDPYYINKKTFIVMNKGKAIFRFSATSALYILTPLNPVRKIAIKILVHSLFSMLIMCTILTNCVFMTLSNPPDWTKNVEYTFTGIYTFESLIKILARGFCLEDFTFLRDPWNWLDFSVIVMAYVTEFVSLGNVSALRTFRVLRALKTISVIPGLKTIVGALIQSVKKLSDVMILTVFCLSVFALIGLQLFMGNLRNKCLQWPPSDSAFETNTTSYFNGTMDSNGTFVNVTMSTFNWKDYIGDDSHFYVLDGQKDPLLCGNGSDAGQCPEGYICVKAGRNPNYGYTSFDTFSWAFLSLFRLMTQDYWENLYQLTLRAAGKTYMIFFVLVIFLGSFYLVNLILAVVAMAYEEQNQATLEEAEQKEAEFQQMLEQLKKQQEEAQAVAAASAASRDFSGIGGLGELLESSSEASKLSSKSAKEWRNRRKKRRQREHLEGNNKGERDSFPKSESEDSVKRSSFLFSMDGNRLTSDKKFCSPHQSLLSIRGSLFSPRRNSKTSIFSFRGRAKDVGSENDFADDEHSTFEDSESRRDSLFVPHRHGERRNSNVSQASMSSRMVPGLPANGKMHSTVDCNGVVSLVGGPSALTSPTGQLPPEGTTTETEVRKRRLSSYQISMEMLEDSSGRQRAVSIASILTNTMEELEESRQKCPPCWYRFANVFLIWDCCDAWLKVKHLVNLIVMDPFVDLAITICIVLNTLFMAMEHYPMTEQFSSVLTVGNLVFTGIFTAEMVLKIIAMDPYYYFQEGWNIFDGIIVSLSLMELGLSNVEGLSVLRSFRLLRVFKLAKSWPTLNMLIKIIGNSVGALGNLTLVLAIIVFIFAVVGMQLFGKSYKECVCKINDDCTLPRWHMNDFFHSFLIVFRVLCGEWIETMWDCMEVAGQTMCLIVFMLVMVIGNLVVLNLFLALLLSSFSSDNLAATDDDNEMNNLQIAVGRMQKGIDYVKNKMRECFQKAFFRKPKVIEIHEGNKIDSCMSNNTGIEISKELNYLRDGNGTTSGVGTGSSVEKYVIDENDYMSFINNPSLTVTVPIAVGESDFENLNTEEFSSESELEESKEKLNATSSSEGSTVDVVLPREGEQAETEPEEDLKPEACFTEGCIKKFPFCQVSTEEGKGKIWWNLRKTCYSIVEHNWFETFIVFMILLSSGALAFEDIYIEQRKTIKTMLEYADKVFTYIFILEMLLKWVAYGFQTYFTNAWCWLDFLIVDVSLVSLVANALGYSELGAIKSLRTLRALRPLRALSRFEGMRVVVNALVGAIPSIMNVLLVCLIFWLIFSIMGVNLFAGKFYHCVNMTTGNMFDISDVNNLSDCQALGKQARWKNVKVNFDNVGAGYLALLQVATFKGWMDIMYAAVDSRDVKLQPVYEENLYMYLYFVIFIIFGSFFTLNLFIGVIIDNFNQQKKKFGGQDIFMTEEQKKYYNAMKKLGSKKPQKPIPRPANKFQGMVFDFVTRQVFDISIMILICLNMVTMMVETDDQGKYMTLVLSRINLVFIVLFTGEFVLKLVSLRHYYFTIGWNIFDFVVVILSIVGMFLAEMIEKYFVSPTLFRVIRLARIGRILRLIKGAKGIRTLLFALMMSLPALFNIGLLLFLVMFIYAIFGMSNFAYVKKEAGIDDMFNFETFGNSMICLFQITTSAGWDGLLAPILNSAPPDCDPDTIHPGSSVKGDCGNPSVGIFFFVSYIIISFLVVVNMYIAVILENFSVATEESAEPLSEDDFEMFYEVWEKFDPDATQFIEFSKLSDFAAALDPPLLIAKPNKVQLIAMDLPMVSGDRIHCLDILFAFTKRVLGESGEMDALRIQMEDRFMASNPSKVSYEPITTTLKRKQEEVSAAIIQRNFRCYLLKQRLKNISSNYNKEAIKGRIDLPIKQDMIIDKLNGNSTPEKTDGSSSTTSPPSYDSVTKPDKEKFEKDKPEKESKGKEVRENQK
Chain of hNav1.7 (Q15858 whole entry, looked up): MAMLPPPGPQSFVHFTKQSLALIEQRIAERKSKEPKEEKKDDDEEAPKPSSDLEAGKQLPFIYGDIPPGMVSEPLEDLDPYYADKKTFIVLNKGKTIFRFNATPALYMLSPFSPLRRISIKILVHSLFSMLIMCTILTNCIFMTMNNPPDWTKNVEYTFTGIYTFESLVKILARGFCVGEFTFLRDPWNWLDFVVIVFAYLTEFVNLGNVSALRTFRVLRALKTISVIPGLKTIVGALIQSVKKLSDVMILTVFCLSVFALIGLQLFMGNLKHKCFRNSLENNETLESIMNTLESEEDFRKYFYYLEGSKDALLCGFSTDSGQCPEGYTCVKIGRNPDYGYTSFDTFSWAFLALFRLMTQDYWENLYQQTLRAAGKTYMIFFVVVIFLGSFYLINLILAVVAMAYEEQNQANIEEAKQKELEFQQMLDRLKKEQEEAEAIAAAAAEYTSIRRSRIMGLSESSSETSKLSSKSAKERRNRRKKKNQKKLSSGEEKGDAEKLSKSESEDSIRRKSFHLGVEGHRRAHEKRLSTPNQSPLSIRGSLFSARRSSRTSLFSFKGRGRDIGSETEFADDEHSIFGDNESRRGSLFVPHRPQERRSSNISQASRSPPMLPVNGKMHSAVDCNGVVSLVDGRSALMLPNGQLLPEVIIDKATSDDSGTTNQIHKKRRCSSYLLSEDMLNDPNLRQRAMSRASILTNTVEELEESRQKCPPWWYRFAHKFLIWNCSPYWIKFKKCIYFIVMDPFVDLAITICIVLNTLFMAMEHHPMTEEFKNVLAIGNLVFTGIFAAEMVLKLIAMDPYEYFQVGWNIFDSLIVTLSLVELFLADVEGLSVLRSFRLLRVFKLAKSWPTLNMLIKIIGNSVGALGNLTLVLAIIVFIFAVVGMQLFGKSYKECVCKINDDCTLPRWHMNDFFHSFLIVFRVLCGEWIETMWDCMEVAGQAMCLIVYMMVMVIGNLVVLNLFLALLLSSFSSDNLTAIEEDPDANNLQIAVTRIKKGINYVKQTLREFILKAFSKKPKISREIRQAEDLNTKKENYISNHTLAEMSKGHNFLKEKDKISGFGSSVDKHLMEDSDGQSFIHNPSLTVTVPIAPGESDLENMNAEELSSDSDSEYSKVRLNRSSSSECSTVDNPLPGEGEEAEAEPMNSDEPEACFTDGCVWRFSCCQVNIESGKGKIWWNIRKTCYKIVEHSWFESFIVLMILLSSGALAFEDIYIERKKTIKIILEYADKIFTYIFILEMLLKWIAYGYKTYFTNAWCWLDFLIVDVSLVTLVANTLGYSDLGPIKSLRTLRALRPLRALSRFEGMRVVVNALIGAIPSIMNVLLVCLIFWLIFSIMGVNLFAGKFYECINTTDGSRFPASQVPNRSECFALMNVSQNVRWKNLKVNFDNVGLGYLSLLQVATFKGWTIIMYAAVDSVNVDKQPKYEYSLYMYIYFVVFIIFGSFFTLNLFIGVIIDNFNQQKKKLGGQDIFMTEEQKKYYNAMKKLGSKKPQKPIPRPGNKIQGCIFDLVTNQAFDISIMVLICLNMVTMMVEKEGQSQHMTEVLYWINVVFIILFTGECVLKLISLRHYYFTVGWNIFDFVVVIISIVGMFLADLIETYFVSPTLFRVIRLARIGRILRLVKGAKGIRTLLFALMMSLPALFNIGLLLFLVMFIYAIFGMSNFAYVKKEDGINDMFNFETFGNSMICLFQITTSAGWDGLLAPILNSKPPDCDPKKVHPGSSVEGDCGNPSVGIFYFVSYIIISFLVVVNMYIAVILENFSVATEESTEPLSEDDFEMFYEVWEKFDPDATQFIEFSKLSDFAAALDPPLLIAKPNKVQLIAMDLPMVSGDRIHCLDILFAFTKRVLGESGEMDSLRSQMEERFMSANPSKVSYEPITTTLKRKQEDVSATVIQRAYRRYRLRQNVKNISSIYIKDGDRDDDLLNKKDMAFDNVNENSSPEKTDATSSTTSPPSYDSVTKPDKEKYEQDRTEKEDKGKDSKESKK

| Compound | IC50 (hNav1.3; Use) | IC50 (hNav1.7; Use) | IC50 (hNav1.5; [1]) | further results |
| --- | --- | --- | --- | --- |
| CC[C@H](C)[C@@H]1NC(=O)[C@@H]2CSSC[C@@H]3NC(=O)[C@H](C(C)C)NC(=O)[C@H](CC(C)C)NC(=O)[C@H](CC(N)=O)NC(=O)[C@@H]4CCCN4C(=O)[C@H](CCCNC(=N)N)NC(=O)[C@H](CSSC[C@H](NC(=O)[C@@H](N)CC(=O)O)C(=O)N[C@@H](CC(C)C)C(=O)NCC(=O)N[C@@H](Cc4ccccc4)C(=O)N[C@@H](CCSC)C(=O)N[C@@H](CCCNC(=N)N)C(=O)N[C@@H](CCCCN)C(=O)N2)NC(=O)[C@H](CSSC[C@@H](C(=O)N[C@@H](CCCCN)C(=O)N[C@@H](Cc2ccc(O)cc2)C(=O)N[C@H](C(=O)N[C@@H](Cc2ccccc2)C(N)=O)C(C)C)NC(=O)[C@H](Cc2c[nH]c4ccccc24)NC(=O)[C@H](CCCCN)NC(=O)[C@H](CC(C)C)NC(=O)[C@H]([C@@H](C)O)NC(=O)[C@H](CCCNC(=N)N)NC(=O)[C@H](CO)NC3=O)NC(=O)[C@H](CCCCN)NC(=O)[C@H](CC(=O)O)NC(=O)[C@H](CC(N)=O)NC(=O)[C@H](CC(=O)O)NC(=O)[C@@H]2CCCN2C1=O [compound 111] (H-DCLGFMRKCIPDNDKCCRPNLVCSRTLKWCKYVF-NH2; disulfide 2-17, 9-23, 16-30) | – | – | – | IC50 (hNav1.3; Table 23, use, […]): 1010 nM; IC50 (hNav1.7; Table 23, use, […]): 1150 nM; IC50 (hNav1.5; Table 23, IonWorks Quattro, use, […], read-out: IWQ Use Nav1.5): 6.19 µM |
| CC[C@H](C)[C@@H]1NC(=O)[C@@H]2CSSC[C@@H]3NC(=O)[C@H](C(C)C)NC(=O)[C@H](CC(C)C)NC(=O)[C@H](CC(N)=O)NC(=O)[C@@H]4CCCN4C(=O)[C@H](CCCNC(=N)N)NC(=O)[C@H](CSSC[C@H](NC(=O)[C@@H](N)CC(=O)O)C(=O)N[C@@H](CC(C)C)C(=O)NCC(=O)N[C@@H](Cc4ccccc4)C(=O)N[C@@H](CCSC)C(=O)N[C@@H](CCCNC(=N)N)C(=O)N[C@@H](CCCCN)C(=O)N2)NC(=O)[C@H](CSSC[C@@H](C(=O)N[C@@H](CCCCN)C(=O)N[C@@H](Cc2ccc(O)cc2)C(=O)N[C@H](C(=O)N[C@@H](Cc2ccccc2)C(N)=O)C(C)C)NC(=O)[C@H](CC(C)C)NC(=O)[C@H](CCCCN)NC(=O)[C@H](Cc2c[nH]cn2)NC(=O)[C@H]([C@@H](C)O)NC(=O)[C@H](CCCNC(=N)N)NC(=O)[C@H](CO)NC3=O)NC(=O)[C@H](CCCCN)NC(=O)[C@H](CC(=O)O)NC(=O)[C@H](CC(N)=O)NC(=O)[C@H](CC(=O)O)NC(=O)[C@@H]2CCCN2C1=O [compound 114] (H-DCLGFMRKCIPDNDKCCRPNLVCSRTHKLCKYVF-NH2; disulfide 2-17, 9-23, 16-30) | – | – | – | IC50 (hNav1.3; Table 24, use, […]): 9800 nM; IC50 (hNav1.7; Table 24, use, […]): 6990 nM; IC50 (hNav1.5; Table 24, IonWorks Quattro, use, […], read-out: IWQ Use Nav1.5): 7.27 µM |
| CC[C@H](C)[C@@H]1NC(=O)[C@@H]2CSSC[C@@H]3NC(=O)[C@H](C(C)C)NC(=O)[C@H](CC(C)C)NC(=O)[C@H](CC(N)=O)NC(=O)[C@@H]4CCCN4C(=O)[C@H](CCCNC(N)=O)NC(=O)[C@H](CSSC[C@H](NC(=O)[C@@H](N)CC(=O)O)C(=O)N[C@@H](CC(C)C)C(=O)NCC(=O)N[C@@H](Cc4ccccc4)C(=O)N[C@@H](CCSC)C(=O)N[C@@H](CCCNC(=N)N)C(=O)N[C@@H](CCCCN)C(=O)N2)NC(=O)[C@H](CSSC[C@@H](C(=O)N[C@@H](CCCCN)C(=O)N[C@@H](Cc2ccc(O)cc2)C(=O)N[C@H](C(=O)N[C@@H](Cc2ccccc2)C(N)=O)C(C)C)NC(=O)[C@H](Cc2c[nH]c4ccccc24)NC(=O)[C@H](CCCCN)NC(=O)[C@H](Cc2cnc[nH]2)NC(=O)[C@H]([C@@H](C)O)NC(=O)[C@H](CCCNC(=N)N)NC(=O)[C@H](CO)NC3=O)NC(=O)[C@H](CCCCN)NC(=O)[C@H](CC(=O)O)NC(=O)[C@H](CC(N)=O)NC(=O)[C@H](CC(=O)O)NC(=O)[C@@H]2CCCN2C1=O [compound 116] | 230 nM | 170 nM | – | IC50 (hNav1.5; IWQ Use Nav1.5 (μM)): 11 µM |
| CC[C@H](C)[C@@H]1NC(=O)[C@@H]2CSSC[C@@H]3NC(=O)[C@H](C(C)C)NC(=O)[C@H](CC(C)C)NC(=O)[C@H](CC(N)=O)NC(=O)[C@@H]4CCCN4C(=O)[C@H](CCCNC(=N)N)NC(=O)[C@H](CSSC[C@H](NC(=O)[C@@H](N)CC(=O)O)C(=O)N[C@@H](CC(C)C)C(=O)NCC(=O)N[C@@H](Cc4ccccc4)C(=O)N[C@@H](CCSC)C(=O)N[C@@H](CCCNC(=N)N)C(=O)N[C@@H](CCCCN)C(=O)N2)NC(=O)[C@H](CSSC[C@@H](C(=O)N[C@@H](CCCCN)C(=O)N[C@@H](Cc2ccc(O)cc2)C(=O)N[C@H](C(=O)N[C@@H](Cc2ccccc2)C(N)=O)C(C)C)NC(=O)[C@H](Cc2c[nH]c4ccccc24)NC(=O)[C@H](CCCCN)NC(=O)[C@H](Cc2c[nH]cn2)NC(=O)[C@H]([C@@H](C)O)NC(=O)[C@H](CCCNC(N)=O)NC(=O)[C@H](CO)NC3=O)NC(=O)[C@H](CCCCN)NC(=O)[C@H](CC(=O)O)NC(=O)[C@H](CC(N)=O)NC(=O)[C@H](CC(=O)O)NC(=O)[C@@H]2CCCN2C1=O [compound 117] | 510 nM | 320 nM | 8.87 µM | – |
| CC[C@H](C)[C@@H]1NC(=O)[C@@H]2CSSC[C@@H]3NC(=O)[C@H](C(C)C)NC(=O)[C@H](CCSC)NC(=O)[C@H](CC(N)=O)NC(=O)[C@@H]4CCCN4C(=O)[C@H](CCCNC(=N)N)NC(=O)[C@H](CSSC[C@H](NC(=O)[C@@H](N)CC(=O)O)C(=O)N[C@@H](CC(C)C)C(=O)NCC(=O)N[C@@H](Cc4ccccc4)C(=O)N[C@@H](CCSC)C(=O)N[C@@H](CCCNC(=N)N)C(=O)N[C@@H](CCCCN)C(=O)N2)NC(=O)[C@H](CSSC[C@@H](C(=O)N[C@@H](CCCCN)C(=O)N[C@@H](Cc2ccc(O)cc2)C(=O)N[C@H](C(=O)N[C@@H](Cc2ccccc2)C(N)=O)C(C)C)NC(=O)[C@H](Cc2c[nH]c4ccccc24)NC(=O)[C@H](CCCCN)NC(=O)[C@H](Cc2c[nH]cn2)NC(=O)[C@H]([C@@H](C)O)NC(=O)[C@H](CCCNC(=N)N)NC(=O)[C@H](CO)NC3=O)NC(=O)[C@H](CCCCN)NC(=O)[C@H](CC(=O)O)NC(=O)[C@H](CC(N)=O)NC(=O)[C@H](CC(=O)O)NC(=O)[C@@H]2CCCN2C1=O [compound 120] (H-DCLGFMRKCIPDNDKCCRPNMVCSRTHKWCKYVF-NH2; disulfide 2-17, 9-23, 16-30) | 90 nM | 140 nM | 9.54 µM | – |
| CC[C@H](C)[C@@H]1NC(=O)[C@@H]2CSSC[C@@H]3NC(=O)[C@H](C(C)C)NC(=O)[C@H](CC(C)C)NC(=O)[C@H](CC(N)=O)NC(=O)[C@@H]4CCCN4C(=O)[C@H](CCCNC(=N)N)NC(=O)[C@H](CSSC[C@H](NC(=O)[C@@H](N)CC(=O)O)C(=O)N[C@@H](CC(C)C)C(=O)NCC(=O)N[C@@H](Cc4ccccc4)C(=O)N[C@@H](CCSC)C(=O)N[C@@H](CCCNC(=N)N)C(=O)N[C@@H](CCCCN)C(=O)N2)NC(=O)[C@H](CSSC[C@@H](C(=O)N[C@@H](CCCCN)C(=O)N[C@@H](Cc2ccc(O)cc2)C(=O)N[C@H](C(=O)N[C@@H](CC(C)C)C(N)=O)C(C)C)NC(=O)[C@H](Cc2c[nH]c4ccccc24)NC(=O)[C@H](CCCCN)NC(=O)[C@H](Cc2c[nH]cn2)NC(=O)[C@H]([C@@H](C)O)NC(=O)[C@H](CCCNC(=N)N)NC(=O)[C@H](CO)NC3=O)NC(=O)[C@H](CCCCN)NC(=O)[C@H](CC(=O)O)NC(=O)[C@H](CC(N)=O)NC(=O)[C@H](CC(=O)O)NC(=O)[C@@H]2CCCN2C1=O [compound 122] (H-DCLGFMRKCIPDNDKCCRPNLVCSRTHKWCKYVL-NH2; disulfide 2-17, 9-23, 16-30) | – | – | – | IC50 (hNav1.3; use-dependent, […]): 130 nM; IC50 (hNav1.7; use-dependent, […]): 240 nM; IC50 (hNav1.5; IonWorks Quattro, use-dependent, […], read-out: IWQ Use Nav1.5): 8.46 µM |
| CC[C@H](C)[C@@H]1NC(=O)[C@@H]2CSSC[C@@H]3NC(=O)[C@H](C(C)C)NC(=O)[C@H](CC(C)C)NC(=O)[C@H](CC(N)=O)NC(=O)CNC(=O)[C@H](CCCNC(=N)N)NC(=O)[C@H](CSSC[C@H](NC(=O)[C@@H](N)CC(=O)O)C(=O)N[C@@H](CC(C)C)C(=O)NCC(=O)N[C@@H](Cc4ccccc4)C(=O)N[C@@H](CCSC)C(=O)N[C@@H](CCCNC(=N)N)C(=O)N[C@@H](CCCCN)C(=O)N2)NC(=O)[C@H](CSSC[C@@H](C(=O)N[C@@H](CCCCN)C(=O)N[C@@H](Cc2ccc(O)cc2)C(=O)N[C@H](C(=O)N[C@@H](Cc2ccccc2)C(N)=O)C(C)C)NC(=O)[C@H](Cc2c[nH]c4ccccc24)NC(=O)[C@H](CCCCN)NC(=O)[C@H](Cc2c[nH]cn2)NC(=O)[C@H]([C@@H](C)O)NC(=O)[C@H](CCCNC(=N)N)NC(=O)[C@H](CO)NC3=O)NC(=O)[C@H](CCCCN)NC(=O)[C@H](CC(=O)O)NC(=O)[C@H](CC(N)=O)NC(=O)[C@H](CC(=O)O)NC(=O)[C@@H]2CCCN2C1=O [compound 126] (H-DCLGFMRKCIPDNDKCCRGNLVCSRTHKWCKYVF-NH2; disulfide 2-17, 9-23, 16-30) | 110 nM | 100 nM | 11.9 µM | – |

From patent US9340590B2 (priority 2011, dated 2016)
